# Reference: patent publication US8658642B2 (Axikin Pharmaceuticals, Inc., priority 2009, dated 2014)
# Columns and labels:
# [1] = target: T1, CCR3 (Homo sapiens, UniProt P51677); assay: CCR3 receptor binding assay ([125I]-labeled human eotaxin/CCL11 displacement on cells); settings: 0.1 nM [125I]-labeled human eotaxin/CCL11, 2×10^5 cells/well, 60 min at room temperature
# T1 sequence (P51677 1-355): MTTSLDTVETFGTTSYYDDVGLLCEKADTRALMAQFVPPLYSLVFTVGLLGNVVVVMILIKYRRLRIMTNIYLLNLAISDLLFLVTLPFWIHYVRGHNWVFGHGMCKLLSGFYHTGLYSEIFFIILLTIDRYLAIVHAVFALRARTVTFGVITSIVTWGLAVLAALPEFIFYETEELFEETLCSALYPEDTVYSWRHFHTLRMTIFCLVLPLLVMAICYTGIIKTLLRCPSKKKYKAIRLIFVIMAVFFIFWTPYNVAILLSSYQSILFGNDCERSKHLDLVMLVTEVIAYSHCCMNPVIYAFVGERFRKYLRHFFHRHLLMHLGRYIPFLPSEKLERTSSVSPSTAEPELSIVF
# Summary of the method: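 Cells (2×10^5/well) incubated 60 min at room temperature with 0.1 nM [125I]-human eotaxin/CCL11 in 25 mM HEPES pH 7.6, MgCl2, CaCl2, 0.5% BSA. Bound radioactivity counted after filtration and 0.5 M NaCl washes. Non-specific binding defined with 500 nM unlabeled eotaxin.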
melting point,Ki [1],Structure (SMILES)
199 to 202 °C,–,"O=C(c1ccco1)N1CCN(S(=O)(=O)c2cc([N+](=O)[O-])ccc2Sc2cc(Cl)ccc2Cl)CC1 [Compound 166, (4-(2-(2,5-Dichlorophenylthio)-5-nitrophenylsulfonyl)piperazin-1-yl)(furan-2-yl)methanone]"
190 to 193 °C,> 5 µM,"Cc1ccc(C)c(Sc2ccc([N+](=O)[O-])cc2S(=O)(=O)N2CCN(C(=O)c3ccccc3)CC2)c1 [Compound 172, (4-(2-(2,5-Dimethylphenylthio)-5-nitrophenylsulfonyl)piperazin-1-yl)(phenyl)methanone]"
206 to 209 °C,> 5 µM,"O=C(c1ccccc1)N1CCN(S(=O)(=O)c2cc([N+](=O)[O-])ccc2Oc2cc(Cl)ccc2Cl)CC1 [Compound 182, (4-(2-(2,5-Dichlorophenoxy)-5-nitrophenylsulfonyl)piperazin-1-yl)(phenyl)methanone]"
–,> 5 µM,"O=C(Nc1ccc([N+](=O)[O-])cc1)N1CCN(S(=O)(=O)c2cc([N+](=O)[O-])ccc2Sc2cc(Cl)ccc2Cl)CC1 [Compound 195, 4-(2-(2,5-Dichlorophenylthio)-5-nitrophenylsulfonyl)-N-(4-nitrophenyl)-piperazine-1-carboxamide]"
–,≤ 0.05 µM,CCOC(=O)CCNC(=S)N1CCN(S(=O)(=O)c2cc([N+](=O)[O-])ccc2Sc2cc(Cl)ccc2Cl)CC1 [Compound 198]
277 to 281 °C,> 5 µM,"CS(=O)(=O)N1CCN(S(=O)(=O)c2cc([N+](=O)[O-])ccc2Sc2cc(Cl)ccc2Cl)CC1 [Compound 202, 1-(2-(2,5-Dichlorophenylthio)-5-nitrophenylsulfonyl)-4-(methylsulfonyl)-piperazine]"
231 to 234 °C,> 5 µM,"CN(C)S(=O)(=O)N1CCN(S(=O)(=O)c2cc([N+](=O)[O-])ccc2Sc2cc(Cl)ccc2Cl)CC1 [Compound 203, 4-(2-(2,5-Dichlorophenylthio)-5-nitrophenylsulfonyl)-N,N-dimethyl-piperazine-1-sulfonamide]"
236 to 239 °C,> 5 µM,"O=[N+]([O-])c1ccc(Sc2cc(Cl)ccc2Cl)c(S(=O)(=O)N2CCN(S(=O)(=O)c3ccccc3)CC2)c1 [Compound 204, 1-(2-(2,5-Dichlorophenylthio)-5-nitrophenylsulfonyl)-4-(phenylsulfonyl)-piperazine]"
264 to 267 °C,> 5 µM,"O=[N+]([O-])c1ccc(Sc2cc(Cl)ccc2Cl)c(S(=O)(=O)N2CCN(S(=O)(=O)c3ccc(C(F)(F)F)cc3)CC2)c1 [Compound 205, 1-(2-(2,5-dichlorophenylthio)-5-nitrophenylsulfonyl)-4-(4-(trifluoromethyl)phenylsulfonyl)piperazine]"
